Experimental data from patent publication US6043283A, “Tyramine compounds and their neuronal effects” (priority 1997, dated 2000).
Entries after “also recorded” stand apart in the source; their conditions may differ. Read-outs that look alike come from different tables or passages of the source. Ends that are not written are not given here.

What was measured:
[1] = system: NTox released by Aβ1-42-stimulated microglia (neuron killing); assay: cells; format: cell-based, rat; conditions: for neuroprotective effect: Aβ1-42-stimulated microglia; for protective effect: 10 μM, 72 hours, FIG. 30
Excerpt: . Briefly, hippocampal cells obtained from embryonic stage 18 rat fetuses were dispersed mechanically in the presence of 0.125% trypsin and plated onto poly-L-lysine coated glass coverslips in 24 well plates at 250,000 cells per well (resulting in adhering cell densities of about 1250 cells per mm^2) in chemically-defined N2 culture media containing 5% fetal bovine serum. Gradual reduction of serum began on day 10 in vitro with daily 1:1 volume replacements with chemically-defined media, until a final concentration of 0.6% serum was achieved. […]; see FIG. 18). In order to eliminate microglia, cultures were exposed to saporin (sap; a ribosome-inactivating protein; Davis and Wiley, 1989) coupled to acetylated LDL (ac-LDL) at a concentration of 10 μg/ml for 12 hours. […] Cultures depleted of microglia were then exposed to test substances in the presence or absence of exogenous microglia (100,000 cells per culture). […]. Controls included cultures without saporin-treatment, cultures without test substances, and cultures with test substances but lacking microglia.
(§1) On day 14 of culture, immediately following saporin treatment, test substances were added to the hippocampal cultures. Synthetic peptide were supplied as 1 mM stock solutions in 0.1 M phosphate buffered saline, pH 7.2, stored for at least 1 week at 4° C. before use. After 72 hours incubation, the cultures were fixed in 4% paraformaldehyde at room temperature for 18 hours and immuno-stained by overnight incubation with a mixture of anti-neurofilament antibodies (NF; SMI-311, 1:600; Stemberger Monoclonals, Inc.) plus anti-MAP-2 (Boehringer Mannheim, 184959; 1:600) at 4° C. in the presence of 2% horse serum and 0.3% triton X-100 to delineate both neuronal cell bodies and neurites. Astroglia were visualized using sheep anti-glial fibrillary acidic protein (GFAP, Sigma) as described by Giulian et al., 1989. Finally, to label all cell nuclei, the coverslips were exposed to 0.01% bisbenzimide (Hoechst 33258; Sigma) in PBS, pH 6.9, and rinsed in distilled water and mounted in glycerin. Immuno-labeled cells per field and nuclei per field were scored at 200X magnification using fluorescence microscopy. Data were expressed as % mean survival expressed in terms of parallel untreated control cultures after scoring at least 20 randomly selected fields for each of 3 coverslips.
The procedures described above and by Giulian et al, 1996, provided for the identification of tyramine compounds as therapeutic agents for neurodegenerative diseases or disorders including, for example, Alzheimer's disease. Cells from the brain of fetal rats were grown in tissue cultures. Microglial populations within the cultures were controlled following the method described in Example 5 above. Known amounts of Aβ peptides coupled to microspheres were added to the culture. The Aβ spheres stimulated the microglia to release NTox, which in turn destroyed the neurons. The neurons in the cultures were monitored for survival by immuno-staining.
Generally, drug assays involve the addition of known concentrations of a test agent over a range of concentrations. After 72 hours, the experiment is stopped and the neurons are identified by immuno-staining. The data is expressed as % neuronal survival […]. Dose response curves are then used to estimate Effective Dose50 % (ED50) of neuroprotective agents. […].
In this experiment, about 65% of the neurons were destroyed by the Aβ-stimulated microglia. […] Other tyramine compounds, including tyrosine esters, were neuroprotective (FIG. 30).
Following the methods described herein, numerous compounds were examined to determine their neuroprotective activity. […]

[2] = system: Aβ1-42-stimulated microglia; format: cell-based, rat; conditions: for effect of signal transduction inhibitors on microglia stimulated by Aβ1-42: 0.01 to 100 μM, FIG. 11
Excerpt: Briefly, hippocampal cells obtained from embryonic stage 18 rat fetuses were dispersed mechanically in the presence of 0.125% trypsin and plated onto poly-L-lysine coated glass coverslips in 24 well plates at 250,000 cells per well (resulting in adhering cell densities of about 1250 cells per mm^2) in chemically-defined N2 culture media containing 5% fetal bovine serum. Gradual reduction of serum began on day 10 in vitro with daily 1:1 volume replacements with chemically-defined media, until a final concentration of 0.6% serum was achieved. […] In order to eliminate microglia, cultures were exposed to saporin (sap; a ribosome-inactivating protein; Davis and Wiley, 1989) coupled to acetylated LDL (ac-LDL) at a concentration of 10 μg/ml for 12 hours. […] Cultures depleted of microglia were then exposed to test substances in the presence or absence of exogenous microglia (100,000 cells per culture). […] Controls included cultures without saporin-treatment, cultures without test substances, and cultures with test substances but lacking microglia.
as §1

microglia = assay: inhibition of SpheresAβ1-42 binding to microglia; parameters: species or system rat; conditions: for inhibition of SpheresAβ1-42 binding by GAGs and scavenger receptor ligands: heparin sulfate 50 μg/ml, dextran sulfate 500 μg/ml, ac-LDL 200 μg/ml
Description: Spheresmal-BSA (which bind to scavenger receptors) or SpheresAβ1-42 were incubated with microglia for 4 hours following pre-treatment of cells with trypsin (5000 units/ml at 37° C. for 60 min followed by inactivation with soybean trypsin inhibitor), with heparinase (heparin lyase EC 4.2.2.7; two consecutive treatments each of 0.01 units/ml for 60 min), or with chondroitinase ABC (chondroitin ABC lyase EC 4.3.3.4; two consecutive treatments each of 0.02 units/ml for 60 min). […] Microglia mixed with hippocampal neurons were treated with combinations of β-D-xyloside (1 mm), heparinase (0.02 units/ml), or chondroitinase (0.04 units/ml) and then exposed to plaques.
Each well then received 250,000 SpheresAβ1-42 or Spheresmal-BSA in the presence or absence of Aβ peptides, GAGs, or scavenger receptor ligands. Binding assays were carried out at 37° C. for 4 hours after which coverslips were dipped 10 times in phosphate buffer and fixed with 4% buffered paraformaldehyde. Microsphere adherence to cells was scored at 200 magnification with phase/fluorescence microscopy. Data, expressed as % inhibition of sphere binding, was calculated from total number of spheres per field noted for control cultures receiving spheres only. Values are based upon at least 3 coverslips from 2 independent experiments. […] Washed spheres were resuspended in 0.2 M borate buffer (pH 8.5) in the presence of 300 μg Aβ or 400 μg BSA in 6% DMSO. After overnight mixing at room temperature, the spheres were washed extensively and blocked by 1 M glycine (pH 8.0) for 30 minutes.

[3] = system: rat microglia / hippocampal neurons; conditions: rat microglia; mostly 1 μmole/l
rat microglia = assay: binding of Aβ-coupled microspheres to microglia; conditions: 4 hours at 37° C. (72 h in FIG. 23)

CCCCOc1ccc(O)cc1 [4-butoxyphenol]
neuroprotective activity (structure/function) ([1]; Example 14): little or no neuroprotective activity

NC(Cc1cc(O)c(O)cc1O)C(=O)O (stereo not shown) [6--OH DOPA]
neuroprotective activity (structure/function) ([1]; Example 14): little or no neuroprotective activity

NCCc1cc(O)c(O)cc1O [6--OH dopamine]
neuroprotective activity (structure/function) ([1]; Example 14): little or no neuroprotective activity

N[C@@H](Cc1ccc(O)c(O)c1)C(=O)O [DOPA]
neuroprotective activity (structure/function) ([1]; Example 14): little or no neuroprotective activity

CC(=O)NCCc1ccc(O)cc1 [acetylated tyramine]
neuroprotective activity (structure/function) [1]: little or no neuroprotective activity

CCN(CC)CCCC(C)Nc1ccnc2cc(Cl)ccc12 (stereo not shown) [chloroquine]
effect of immunosuppressive drugs on microglia stimulated by Aβ1-42 ([2]; 0.1 to 10 μM, FIG. 10): had a protective effect; also recorded: inhibit neuron killing

COc1c(C=O)c(O)cc2c1C(=O)c1ccccc1C2=O [damacanthal]
effect of signal transduction inhibitors on microglia stimulated by Aβ1-42 [2]: had a protective effect

CC(C)(C)OC(=O)[C@@H](N)Cc1cc(I)c(O)c(I)c1 [di-iodinated tyrosine t-butyl ester]
neuroprotective effect [1]: have neuroprotective effects | neuroprotective activity (structure/function) ([1]; Example 14): enhance neuroprotective effects

NCCc1ccc(O)c(O)c1 [dopamine]
neuroprotective activity (structure/function) [1]: little or no neuroprotective activity

CN[C@@H](C)[C@H](O)c1ccccc1 [ephedrine]
neuroprotective activity (structure/function) ([1]; Example 14): little or no neuroprotective activity

CNC[C@H](O)c1ccc(O)c(O)c1 [epinephrine]
neuroprotective activity (structure/function) [1]: little or no neuroprotective activity

O=c1c(-c2ccc(O)cc2)coc2cc(O)cc(O)c12 [genistein]
effect of signal transduction inhibitors on microglia stimulated by Aβ1-42 [2]: had a protective effect

CC(C)(C)OC(=O)[C@@H](N)Cc1ccc(O)c(I)c1 [mono-iodinated tyrosine t-butyl ester]
neuroprotective effect [1]: have neuroprotective effects | neuroprotective activity (structure/function) ([1]; Example 14): enhance neuroprotective effects

NC[C@H](O)c1ccc(O)c(O)c1 [norepinephrine]
neuroprotective activity (structure/function) ([1]; Example 14): little or no neuroprotective activity

NCCc1ccccc1 [phenethylamine]
neuroprotective activity (structure/function) ([1]; Example 14): little or no neuroprotective activity

Nc1ccccc1N [phenylenediamine]
neuroprotective activity (structure/function) ([1]; Example 14): little or no neuroprotective activity

Oc1cccc(O)c1 [resorcinol]
neuroprotective activity (structure/function) ([1]; Example 14): little or no neuroprotective activity

NC(=O)[C@@H](N)Cc1ccc(O)cc1 [tyrosinamide]
neuroprotective activity (structure/function) ([1]; Example 14): little or no neuroprotective activity

C=CCOC(=O)[C@@H](N)Cc1ccc(O)cc1 [tyrosine allyl ester]
protective effect [1]: neuron survival was markedly enhanced | neuroprotective activity (structure/function) ([1]; Example 14): enhance neuroprotective effects

CCOC(=O)[C@@H](N)Cc1ccc(O)cc1 [tyrosine ethyl ester]
neuroprotective activity (structure/function) ([1]; Example 14): little or no neuroprotective activity

NNC(=O)[C@@H](N)Cc1ccc(O)cc1 [tyrosine hydrazide]
neuroprotective activity (structure/function) ([1]; Example 14): little or no neuroprotective activity

COC(=O)[C@@H](N)Cc1ccc(O)cc1 [tyrosine methyl ester]
neuroprotective activity (structure/function) ([1]; Example 14): little or no neuroprotective activity

N[C@@H](Cc1ccc(O)cc1)C(=O)Nc1ccc2ccccc2c1 [tyrosine β-naphthylamide]
neuroprotective activity (structure/function) ([1]; Example 14): enhance neuroprotective effects

N[C@@H](Cc1ccc(O)cc1)C(=O)O [tyrosine]
protective effect [1]: no protective effect | neuroprotective activity (structure/function) ([1]; Example 14): little or no neuroprotective activity

Aβ1-42Gln13Gln14: synthetic peptide Aβ1-42Gln13Gln14
inhibition of SpheresAβ1-42 binding by peptides (microglia; 10 μmoles/l, 4 hours, 37° C.): unable to block | induction of neurotoxic microglia / neuron killing [3]: unable to elicit neurotoxic responses

Aβ10-42: Aβ peptide residues 10-42 (YEVHHQKLVFFAEDVGSNKGAIIGLMVGGVVIA; Amyloid-beta protein 42; UniProt P05067 681-713, looked up, fragment)
binding of peptide-coupled microspheres to microglia (rat microglia): bound to microglia

Aβ17-43-microspheres: Aβ17-43 coupled to fluorescent microspheres (LVFFAEDVGSNKGAIIGLMVGGVVIAT; also: coupled to fluorescent microspheres; UniProt P05067 688-714, looked up, fragment)
binding of peptide-coupled microspheres to microglia (rat microglia): no consistent association with microglia | binding of peptide-coupled microspheres to microglia (rat microglia; listed as Aβ17-43 coupled microspheres): not engulfed by microglia

chondroitin sulfate
inhibition of SpheresAβ1-42 binding by GAGs and scavenger receptor ligands (microglia): only heparin sulfate blocked; also recorded: not similar compounds

heparin sulfate
inhibition of SpheresAβ1-42 binding by GAGs and scavenger receptor ligands (microglia): blocked; also recorded: reduction of binding | inhibition of SpheresAβ1-42 binding by GAGs and scavenger receptor ligands (microglia; listed as heparan sulfate): block Aβ binding to microglia

tyrosine butyl ester
protective effect [1]: neuron survival was markedly enhanced
